# Test results as given in patent publication US20080161396A1, “Method of control of arthropod pests of game and pet birds” (priority 2006, published 2008).
# Values joined by “and” are separate entries in the source; they are usually repeats but may differ in a detail not shown here. Equal values may be shown once. “Also recorded” adds a separate entry of the source.
# Columns and labels:
# [1] = test system: ticks; assay: Tick infestation of red grouse chicks after permethrin band treatment of hens and chicks (field experiment, two Moors); type: in vivo, Ixodes ricinus
# Method: This experiment assessed the effect of ticks on grouse productivity. The experiment was replicated in two sites located in NE Scotland and Perthshire. On each Moor, hens were either treated with permethrin leg bands or with untreated bands. After hatching, chicks from treated hens were also treated and tagged with a permethrin band attached to a metal patagial tag, while chicks from control broods were tagged with only the metal patagial tags.
# (§1) The experiment was conducted on two sites located in the North of Scotland (March-October). In outline, on each Moor, hens were either treated with permethrin leg bands or with untreated band. After hatching, chicks from treated hens were also tagged and treated with permethrin partagial bands, while chicks from control brood were tagged but not treated with permethrin. The experiment was conducted on Tullybeagles Estate in Perthshire (hereafter referred as to Moor 1) and Forest of Birse Estate on Deeside (hereafter Moor 2). Both Moors are managed for grouse (heather burning, predator control, worm control) and had low grouse densities and low productivity in recent years.
# (§2) Catching and treatment of hens. In spring (18 March-6 April), 40 hens were caught on Moor 1 and 20 on Moor 2. Each was randomly assigned to one of two treatments. Half the birds caught at each site were treated (i.e., given acaracide leg bands, two per bird), or kept as control (untreated bands). Hens were fitted with radio collars (TW-3, Biotrack) to facilitate relocation. Birds were aged, weighed, wing length measured and condition score recorded. All hens were dosed with anthelminthic (Levamisole hydrochloride 3%) to remove nematode parasites. Nematodes are well known for their negative effects on grouse breeding success and survival (Hudson, 1986), so removing them standardized the birds for this possible source of variation.
# (§3) Brood survival to 2 weeks +/−5 days and treatment of chicks. Hens were located by radio tracking and pointer dogs were used to locate chicks. As many chicks as possible were captured. […] Brood survival to 1 month days +/−5 days. Hens were located by radio tracking and pointer dogs were used to locate chicks. As many chicks as possible were captured. […] length and tick counts (around head and neck area) were recorded. A blood sample was collected in EDTA coated eppendorfs. At 1 month, because it was difficult to ensure that all the chicks were found during daytime visits with dogs, we also located hens and broods at night by radio tracking and broods were counted using lamp. This provided the best estimate of brood size at 1 month, which was used in subsequent analyses.
# (§4) Statistical analyses. Tick numbers were modeled using generalized linear mixed models with brood as a random effect and using a poisson error distribution. Tick burdens are known to be much less variable within broods than between broods (Elston et al., 2001). The seasonal pattern was investigated by fitting time as julian day (days from 1st January) and the asymptotic pattern in the data was captured using a quadratic function of julian day (julian day*julian day). The interaction between time and treatment was used to determine if the pattern of tick burden varied between treatments. The relationship between tick burden and age was investigated using chick age as number of days post hatching and the quadratic function of chick age to investigate if there was a significant asymptotic relationship between average brood tick abundance and chick age (a rise and fall in tick numbers in relation to age). Hatching success was modeled using logistic regression (binomial error structure) with the proportion of eggs that hatched as a proportion of the total clutch size as the response variable. Brood survival was modeled using logistic regression (binomial error structure) with the proportion of chicks alive as a proportion of the number of chicks that hatched as the response variable. […]
# [2] = Breeding success, brood size, chick survival and chick growth of red grouse (treated vs control hens/broods); type: in vivo, red grouse (Lagopus lagopus scoticus); conditions: for Breeding success (%): only hens alive at the end of breeding season
# Method: as §1, §2
# Laying time. Nests were located by radio tracking and their location recorded using GPS. Clutch size was measured, and all eggs were weighed (with an electronic balance, to the nearest 0.1 g) and measured (length by width, with a caliper, to the nearest 0.1 mm). Egg density was used to estimate hatch dates (see Seivwright, 2004). If clutches were incomplete at first visit, nests were revisited.
# Hatching success. Around predicted hatch date (from egg measurements), nests were located using GPS and number of hatched and un-hatched eggs were recorded. Broods were located by radio-tracking hens and chicks were found and counted with the aid of trained pointer dogs.
# as §3
# Brood size at fledging. Hens were located at around 45 days post hatching. Broods were then flushed and number of chicks was counted.
# as §4, with “age).” for “age). Hatching success was modeled using logistic regression (binomial error structure) with the proportion of eggs that hatched as a proportion of the total clutch size as the response variable. Brood survival was modeled using logistic regression (binomial error structure) with the proportion of chicks alive as a proportion of the number of chicks that hatched as the response variable.”
# [3] = Hen survival of treated and control red grouse hens; type: in vivo, red grouse (Lagopus lagopus scoticus); conditions: for % hens alive after 6 months: alive in October
# Method: as §1, §2
# [4] = test system: ticks; conditions: pour on; high tick site; cited from earlier work
smiles,measurement,setting,value
CC1(C)C(C=C(Cl)Cl)C1C(=O)OCc1cccc(Oc2ccccc2)c1 (stereo not drawn) [permethrin],tick infestation rates of treated chicks compared with untreated chicks from treated mothers,"[1]; across season, FIG. 1",significantly lower
same,number of chicks with patagial treatment band found with ticks,[1]; chicks carrying patagial band,one
same,average tick counts on treated chicks compared with control chicks,"[1]; chicks with permethrin patagial band, taking into account seasonal pattern, FIG. 1",significantly lower
same,average ticks per chick in untreated chicks from treated hens compared with control broods,"[1]; hen treatment only (leg bands), across the season, FIG. 1",significantly lower
same,tick infestation in untreated chicks from treated hens compared with controls in relation to chick age,"[1]; hen treatment only, by chick age, FIG. 2",significantly lower
same,tick infestation levels in untreated chicks from treated hens,"[1]; hen treatment only, discussion summary",very low
same,peak tick numbers in untreated chicks from treated hens relative to controls,"[1]; hen treatment only, fraction of that found in controls",about one third
same,peak tick numbers in untreated chicks from treated hens,"[1]; hen treatment only, seasonal pattern",around 4 ticks per chick
same,tick infestation rates of treated chicks compared with untreated chicks from treated mothers,[1]; in relation to chick age,no significant difference
same,maximum mean infestation rate in the treated group,"[1]; treated chicks, age 0 to 55 days, FIG. 2, control around 12",less than 2 ticks per chick
same,tick numbers of treated chicks compared with controls in relation to age,"[1]; treated chicks, age range 0 to 55 days, FIG. 2",significantly lower
same,tick infestation after directly treating chicks with acaracide,"[1]; treated chicks, discussion summary",negligible levels
same,peak average tick numbers per chick in the treated group,"[1]; treated chicks, seasonal pattern, FIG. 1, control peak around 13",2 ticks per chick per brood
same,effect of treatment on growth (wing length or body mass) of chicks,"[2]; Moor 1 & 2 combined, FIG. 4",no effect; also recorded: did not differ
same,Breeding outcome (success %),"[2]; Moor 1, treated",(21.5%)
same,Breeding outcome = Total number of young fledged,"[2]; Moor 1, treated",40
same,Brood size at 1 month,"[2]; Moor 1, treated",3.6 ± 2.9
same,Brood size at 2 weeks,"[2]; Moor 1, treated",6.0 ± 2.7
same,Brood size at fledging,"[2]; Moor 1, treated",2.7 ± 2.9
same,Hatched brood size,"[2]; Moor 1, treated",8.5 ± 3.2
same,Breeding success (%),"[2]; Moor 1, treated",35.9 ± 27.2%
same,Breeding outcome (success %),"[2]; Moor 2, treated",(10.9%)
same,Breeding outcome = Total number of young fledged,"[2]; Moor 2, treated",5
same,Brood size at 1 month,"[2]; Moor 2, treated",2.0 ± 2.0
same,Brood size at 2 weeks,"[2]; Moor 2, treated",3.4 ± 1.0
same,Brood size at fledging,"[2]; Moor 2, treated",1.0 ± 1.2
same,Hatched brood size,"[2]; Moor 2, treated",8.1 ± 2.4
same,Breeding success (%),"[2]; Moor 2, treated",12.8 ± 13.7%
same,effect of hen treatment on number of eggs that hatched as a proportion of the clutch size (hatching success),[2]; both Moors,no effect
same,effect of treatment on brood size at 1 month of age,[2]; both Moors,no effect
same,effect of treatment on brood size at 2 weeks of age,[2]; both Moors,no effect
same,effect of treatment on brood size at fledging,"[2]; both Moors, late July",no effect
same,effect of treatment on chick survival rates,[2]; discussion summary,no effect
same,hatched chicks alive at approximately 2 weeks of age,"[2]; treated group (CL=57-71%), control 58%",65%
same,% hens alive after 6 months,"[3]; Moor 1, treated hens",68.4% and 60%
same,% hens alive after 6 months,"[3]; Moor 2, treated hens",60% and 68%
same,"hen survival, treated compared with control hens","[3]; overall, FIG. 6",did not differ
CC1(C)[C@H](C(=O)O[C@H](C#N)c2cccc(Oc3ccccc3)c2)[C@@H]1C=C(Br)Br [deltamethrin],duration of short term effects,[4],up to 20 days
same,time by which the effect had waned,[4],≤ 40 days
